Experiments:
[1] = system: Enterobacteriaceae; test: Antimicrobial activity against integron carrying Enterobacteriaceae assessed as percent resistant isolates; assay type: functional
[2] = system: Enterobacteriaceae; test: Antimicrobial activity against non-integron carrying Enterobacteriaceae assessed as percent resistant isolates; assay type: functional

| Compound | Activity [1] [%] | Activity [2] [%] |
| --- | --- | --- |
| NCC[C@H](O)C(=O)N[C@@H]1C[C@H](N)[C@@H](O[C@H]2O[C@H](CN)[C@@H](O)[C@H](O)[C@H]2O)[C@H](O)[C@H]1O[C@H]1O[C@H](CO)[C@@H](O)[C@H](N)[C@H]1O [AMIKACIN] | 29.7 | 4.2 |
| O=C(O)c1cn(C2CC2)c2cc(N3CCNCC3)c(F)cc2c1=O [CIPROFLOXACIN] | 49.4 | 6.9 |
| C[C@H]1[C@H](NC(=O)/C(=N\OC(C)(C)C(=O)O)c2csc(N)n2)C(=O)N1S(=O)(=O)O [AZTREONAM] | 26.9 | 9.4 |
| COLISTIMETHATE SODIUM | 12.5 | 12.5 |
| CO/N=C(\C(=O)N[C@@H]1C(=O)N2C(C(=O)[O-])=C(C[N+]3(C)CCCC3)CS[C@H]12)c1csc(N)n1 [CEFEPIME] | 29.5 | 6.2 |
| CO/N=C(\C(=O)N[C@@H]1C(=O)N2C(C(=O)O)=C(COC(C)=O)CS[C@H]12)c1csc(N)n1 [CEFOTAXIME] | 41.3 | 6.9 |
| CC1(C)S[C@@H]2[C@H](NC(=O)[C@H](N)c3ccccc3)C(=O)N2[C@H]1C(=O)O [AMPICILLIN] | 96.3 | 60 |
| CC(C)(O/N=C(\C(=O)N[C@@H]1C(=O)N2C(C(=O)[O-])=C(C[n+]3ccccc3)CS[C@H]12)c1csc(N)n1)C(=O)O [CEFTAZIDIME] | 36.3 | 4.9 |
| C[C@@H](O)[C@H]1C(=O)N2C(C(=O)O)=C(S[C@@H]3CN[C@H](C(=O)N(C)C)C3)[C@H](C)[C@H]12 [MEROPENEM] | 6 | 2 |
| NC[C@H]1O[C@H](O[C@H]2[C@H](O)[C@@H](O[C@H]3O[C@H](CO)[C@@H](O)[C@H](N)[C@H]3O)[C@H](N)C[C@@H]2N)[C@H](N)C[C@@H]1O [TOBRAMYCIN] | 41.8 | 8.5 |
| COc1cc(Cc2cnc(N)nc2N)cc(OC)c1OC.Cc1cc(NS(=O)(=O)c2ccc(N)cc2)no1 [CO-TRIMOXAZOLE] | 87.7 | 14.5 |
| CO/N=C(\C(=O)N[C@@H]1C(=O)N2C(C(=O)O)=C(COC(N)=O)CS[C@H]12)c1ccco1 [CEFUROXIME] | 46.9 | 21.9 |
| CCN1CCN(C(=O)N[C@@H](C(=O)N[C@@H]2C(=O)N3[C@@H]2SC(C)(C)[C@@H]3C(=O)O)c2ccccc2)C(=O)C1=O [PIPERACILLIN] | 90.2 | 32.1 |
| CO[C@@]1(NC(=O)Cc2cccs2)C(=O)N2C(C(=O)O)=C(COC(N)=O)CS[C@@H]21 (single isomer, unassigned) [CEFOXITIN] | 40 | 16.6 |
| C[C@@H](O)[C@H]1C(=O)N2C(C(=O)O)=C(SCCNC=N)C[C@H]12 [IMIPENEM ANHYDROUS] | 7.6 | 1.2 |

— ChEMBL document CHEMBL1150792, “Enterobacteriaceae bloodstream infections: presence of integrons, risk factors, and outcome” (2007)
